Laboratory results: patent US12036234B2, “Heparin conjugated to collagen-binding peptides for targeting to biological and synthetic tissues” (Northwestern University, priority 2017, dated 2024)
“Also recorded” adds a separate entry of the source. Ends that are not written are not given here.

Columns and labels:
rat aorta ECM = assay: Heparin deposited and retained on aorta ECM (DMMB GAG assay); assay type: binding; conditions: immediately after treatment at 1 mg/mL (t=0)
Description: Heparin Immobilization onto Rat Aorta ECM. All animal experiments and procedures were approved by the Animal Care and Use Committee of Northwestern University and animal care was performed in accordance with the NIH Guide for Care and Use of Laboratory Animals. Male Sprague-Dawley rats weighing 200-250 g (Charles River Laboratories, Chicago, IL) were used as donors to recover the abdominal segment of the aorta. Rat aorta ECM was isolated via decellularization as described 13 using 1% Triton X for 48 h and 1.5% SDS for 48 h at room temperature, followed by 100 U/mL DNase I solution at 37° C. for 4 h. Aorta ECM was subsequently incubated with heparin sodium, CBP-conjugated heparin or CBPi-conjugated heparin (1 mg/mL) overnight at 4° C., followed by three washes with PBS to remove excessive and unbound heparin (FIG. 1B). ECM without heparin incubation served as negative, untreated controls.
Quantification of Heparin Deposited onto ECM. The amount of heparin immobilized onto aorta ECM was quantified using a GAG assay. […] Retention of heparin on ECM after CBP-heparin treatment was assessed by incubating heparinized ECM in endothelial growth medium (EGM-2, Lonza) at 37° C. and measuring the amount of heparin remaining on ECM weekly using a GAG assay. […]

rat platelet rich plasma = assay: Platelet adhesion to modified ECM (LDH assay); assay type: cell-based; conditions: ECM treated at 1 mg/mL
Description: Platelet Adhesion. The thrombogenic properties of modified ECM were evaluated by a platelet adhesion assay described previously.^13 ECM grafts were incubated in diluted rat platelet rich plasma ([…] platelet/mL) at 37° C. for 1 h, rinsed with warm PBS, and lysed with 2% Triton-X. Lactate dehydrogenase (LDH) released into the medium was measured by an LDH assay following the manufacturer's protocol (Roche Molecular Diagnostics, Pleasanton, CA). LDH measured from lysates of serially diluted platelets standardized the assay to quantify the concentration of deposited platelet on ECM.

[1] = system: recalcified porcine blood; assay: Clot formation of recalcified whole blood on ECM grafts
Description: Clot Formation of Recalcified Whole Blood. A recalcified whole blood clotting assay was performed to assess hemocompatibility of ECM grafts treated with or without the addition of heparin, alone or conjugated to CBP/CBPi.^15 Briefly, […] Each sample was weighed before and after incubation with recalcified blood, and the mass of the blood clotted on each sample was calculated and normalized to the weight of the ECM. Each sample containing clotted blood was subsequently embedded in paraffin, sectioned and stained with H&E for microscopic analysis.

[2] = target: T1, vascular endothelial growth factor, VEGF (Homo sapiens, UniProt P15692); assay: Growth factor binding to modified ECM (VEGF ELISA); conditions: after incubation in EGM-2 for 3 days
T1 construct: purchased Lonza (component of EGM-2 medium)
T1 sequence (P15692 27-191 isoform P15692-4): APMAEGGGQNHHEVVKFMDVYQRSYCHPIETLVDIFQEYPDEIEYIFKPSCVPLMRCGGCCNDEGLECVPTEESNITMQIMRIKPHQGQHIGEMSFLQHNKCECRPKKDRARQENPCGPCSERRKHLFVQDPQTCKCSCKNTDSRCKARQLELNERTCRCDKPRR
Description: Growth Factor Binding to Modified ECM. ECM samples treated with PBS alone, heparin alone, CBPi-heparin, or CBP-heparin were incubated in EGM-2 (containing 2 ng/mL recombinant human vascular endothelial growth factor, VEGF) for 3 days and washed with PBS to measure the degree of VEGF recruited to heparin modified ECM. ECM grafts before and after EGM-2 incubation were weighed and proteins were extracted as previously described using a urea buffer. 13 The amount of VEGF was measured using an ELISA for human and rat VEGF (Thermo Fisher, Waltham, MA).

[3] = system: Human umbilical vein endothelial cells (HUVECs); assay: Endothelial cell adhesion and retention on modified ECM; assay type: cell-based; conditions: 4 weeks (day 28) in culture
Description: Addition of Endothelial Cells to Modified ECM. Human umbilical vein endothelial cells (HUVECs, Lonza) at passages 3-8 were cultured in EGM-2 and used for cell seeding. The following groups of ECM vascular grafts (1 cm in length each, n=3 per group) were prepared: (1) ECM control alone without heparin or peptide; (2) ECM incubated with free, unconjugated heparin sodium (1 mg/mL); (3) ECM incubated with CBPi conjugated to heparin (1 mg/mL); and (4) ECM incubated with CBP conjugated to heparin (1 mg/mL). HUVECs were seeded twice onto the lumen of each graft (10000 cells/cm^2 at each inoculation) with a 180° rotation of the graft at 30 min after initial seeding. Recellularized grafts were maintained in culture under static condition with medium changed every 2 days.
Cell Number and Viability Measurement. Resazurin was used to assess cell number and viability of HUVECs on ECM grafts over time. 16 Resazurin sodium (44 μM in EGM-2) was added to cell-laden, ECM-modified grafts and incubated for 2 h and the fluorescence intensity (Ex 560 nm, Em 590 nm) was read. The number of cells was calculated based on the fluorescence reading of serially diluted HUVEC suspensions incubated in resazurin solution to develop a standard curve. Prior to performing each measurement, cell seeded grafts were moved to a new low-attachment, multiwell plate to eliminate off target readings from cells that may have migrated off the graft.
Cell Staining and Fluorescence Microscopy. At 4 weeks after cell seeding, each cell-seeded graft was fixed with paraformaldehyde and stained with Phalloidin-488. Fluorescence microscopy (Nikon TE2000U, Japan) was performed on the flattened luminal surface of the graft.

factor Xa = conditions: unconjugated heparin sodium; cited from earlier work
Matrigel = assay: Peptide binding to ECM protein coated plates (streptavidin-594 fluorescence); conditions: 1000 μM biotinylated peptide
Description: (§1) Peptide and ECM Binding Specificity. Collagens I, II, III, and IV, fibronectin, laminin, and Matrigel were coated onto 96-well black plates at 10 μg/cm^2. Biotinylated CBP or CBPi were added to coated plates at 0, 1, 10, 100, and 1000 μM overnight at 4° C., after which the plates were washed three times with PBS. Fluorescent streptavidin-594 (4 μg/mL) was added to each well and incubated at room temperature for 2 h, then thoroughly washed with PBS. The plates were read with a fluorescence microplate reader for fluorescence intensity (Ex 591 nm, Em 614 nm). All data were normalized to the background fluorescence intensity of Streptavidin-594 alone directed at each coated protein.

collagen III = target: T2, collagen III (Homo sapiens, UniProt P02461); assay: as above; conditions: biotinylated peptide
T2 construct: purchased Sigma-Aldrich
T2 sequence (P02461 154-1221 limits assumed): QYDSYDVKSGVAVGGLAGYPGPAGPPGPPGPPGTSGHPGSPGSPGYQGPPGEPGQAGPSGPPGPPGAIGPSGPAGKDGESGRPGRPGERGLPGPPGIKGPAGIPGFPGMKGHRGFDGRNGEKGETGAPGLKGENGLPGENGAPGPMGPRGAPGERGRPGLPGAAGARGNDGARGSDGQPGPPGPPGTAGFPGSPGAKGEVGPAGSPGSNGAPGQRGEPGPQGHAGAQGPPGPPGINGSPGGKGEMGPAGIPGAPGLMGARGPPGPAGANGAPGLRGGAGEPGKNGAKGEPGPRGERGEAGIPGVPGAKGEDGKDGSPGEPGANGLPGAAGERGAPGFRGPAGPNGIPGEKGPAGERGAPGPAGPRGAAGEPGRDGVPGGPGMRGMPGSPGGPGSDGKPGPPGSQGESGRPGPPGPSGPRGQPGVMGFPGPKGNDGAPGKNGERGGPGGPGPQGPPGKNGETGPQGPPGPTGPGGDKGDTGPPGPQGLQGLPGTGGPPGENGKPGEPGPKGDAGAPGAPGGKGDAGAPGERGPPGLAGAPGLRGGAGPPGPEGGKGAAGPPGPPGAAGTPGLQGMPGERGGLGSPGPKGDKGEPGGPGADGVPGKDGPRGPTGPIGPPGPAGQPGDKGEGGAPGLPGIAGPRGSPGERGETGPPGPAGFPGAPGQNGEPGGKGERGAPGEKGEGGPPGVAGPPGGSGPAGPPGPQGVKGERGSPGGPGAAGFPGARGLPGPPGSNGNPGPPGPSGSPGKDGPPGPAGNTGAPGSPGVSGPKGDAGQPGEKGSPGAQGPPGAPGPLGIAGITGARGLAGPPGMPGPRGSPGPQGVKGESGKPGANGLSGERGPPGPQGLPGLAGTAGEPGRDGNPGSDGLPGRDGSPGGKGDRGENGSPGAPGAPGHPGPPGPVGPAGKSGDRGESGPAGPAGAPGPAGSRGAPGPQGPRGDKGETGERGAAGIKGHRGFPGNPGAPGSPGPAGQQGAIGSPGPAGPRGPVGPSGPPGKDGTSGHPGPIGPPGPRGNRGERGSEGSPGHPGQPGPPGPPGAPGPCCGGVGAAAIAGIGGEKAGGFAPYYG
Description: as §1

laminin = target: T3, laminin (Mus musculus, UniProt P02468+P02469+P19137); assay: as above; conditions: 1000 μM biotinylated peptide
T3 construct: purchased Sigma-Aldrich
Description: as §1

collagen II = assay: as above; set-up: species or system chicken; conditions: biotinylated peptide
Description: as §1

fibronectin = assay: as above; set-up: species or system human; conditions: biotinylated peptide
Description: as §1

collagen IV = collagen IV (Mus musculus, UniProt P02463+P08122); assay: as above; set-up: purchased Sigma-Aldrich; conditions: 1000 μM biotinylated peptide; relative to background fluorescence at 0 μM
collagen IV, sequence (P02463 173-1669): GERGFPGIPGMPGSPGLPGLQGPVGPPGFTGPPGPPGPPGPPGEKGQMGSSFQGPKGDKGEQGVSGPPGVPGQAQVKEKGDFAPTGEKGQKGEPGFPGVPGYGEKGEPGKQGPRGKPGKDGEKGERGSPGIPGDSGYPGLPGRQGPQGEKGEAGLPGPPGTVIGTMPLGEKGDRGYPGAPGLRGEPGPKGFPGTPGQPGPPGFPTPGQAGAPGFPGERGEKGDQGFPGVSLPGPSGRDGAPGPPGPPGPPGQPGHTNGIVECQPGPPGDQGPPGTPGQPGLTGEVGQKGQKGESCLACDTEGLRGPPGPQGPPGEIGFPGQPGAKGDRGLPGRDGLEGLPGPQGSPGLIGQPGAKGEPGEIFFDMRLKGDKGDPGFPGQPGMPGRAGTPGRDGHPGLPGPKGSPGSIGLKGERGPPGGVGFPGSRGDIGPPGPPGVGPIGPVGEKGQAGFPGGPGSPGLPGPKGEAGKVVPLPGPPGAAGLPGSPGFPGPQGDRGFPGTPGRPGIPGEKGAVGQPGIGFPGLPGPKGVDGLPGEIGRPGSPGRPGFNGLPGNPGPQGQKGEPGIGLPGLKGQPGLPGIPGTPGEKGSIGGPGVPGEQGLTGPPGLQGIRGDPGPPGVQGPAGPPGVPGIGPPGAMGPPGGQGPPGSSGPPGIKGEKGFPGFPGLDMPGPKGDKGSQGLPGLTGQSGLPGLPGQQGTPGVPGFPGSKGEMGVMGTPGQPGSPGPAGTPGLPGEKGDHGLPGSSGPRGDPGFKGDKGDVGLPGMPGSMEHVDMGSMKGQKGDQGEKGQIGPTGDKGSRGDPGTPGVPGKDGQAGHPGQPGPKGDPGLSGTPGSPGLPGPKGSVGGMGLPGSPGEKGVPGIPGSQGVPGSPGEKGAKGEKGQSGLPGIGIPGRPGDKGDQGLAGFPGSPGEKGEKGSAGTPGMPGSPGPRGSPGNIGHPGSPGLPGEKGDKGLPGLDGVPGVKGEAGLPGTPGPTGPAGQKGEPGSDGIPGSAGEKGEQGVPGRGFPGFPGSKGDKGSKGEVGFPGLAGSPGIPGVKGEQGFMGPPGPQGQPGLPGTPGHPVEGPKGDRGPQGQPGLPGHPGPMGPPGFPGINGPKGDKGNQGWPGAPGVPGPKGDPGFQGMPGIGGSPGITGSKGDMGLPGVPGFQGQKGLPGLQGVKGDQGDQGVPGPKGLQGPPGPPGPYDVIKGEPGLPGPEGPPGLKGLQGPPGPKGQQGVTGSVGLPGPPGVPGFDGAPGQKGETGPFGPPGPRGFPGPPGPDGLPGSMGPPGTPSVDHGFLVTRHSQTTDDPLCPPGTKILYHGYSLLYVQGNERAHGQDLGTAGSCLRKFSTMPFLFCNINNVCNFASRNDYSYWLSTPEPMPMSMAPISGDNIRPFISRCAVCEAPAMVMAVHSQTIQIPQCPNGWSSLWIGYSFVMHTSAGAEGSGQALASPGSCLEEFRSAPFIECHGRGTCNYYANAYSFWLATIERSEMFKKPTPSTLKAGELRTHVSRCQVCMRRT
collagen IV, sequence (P08122 184-1707): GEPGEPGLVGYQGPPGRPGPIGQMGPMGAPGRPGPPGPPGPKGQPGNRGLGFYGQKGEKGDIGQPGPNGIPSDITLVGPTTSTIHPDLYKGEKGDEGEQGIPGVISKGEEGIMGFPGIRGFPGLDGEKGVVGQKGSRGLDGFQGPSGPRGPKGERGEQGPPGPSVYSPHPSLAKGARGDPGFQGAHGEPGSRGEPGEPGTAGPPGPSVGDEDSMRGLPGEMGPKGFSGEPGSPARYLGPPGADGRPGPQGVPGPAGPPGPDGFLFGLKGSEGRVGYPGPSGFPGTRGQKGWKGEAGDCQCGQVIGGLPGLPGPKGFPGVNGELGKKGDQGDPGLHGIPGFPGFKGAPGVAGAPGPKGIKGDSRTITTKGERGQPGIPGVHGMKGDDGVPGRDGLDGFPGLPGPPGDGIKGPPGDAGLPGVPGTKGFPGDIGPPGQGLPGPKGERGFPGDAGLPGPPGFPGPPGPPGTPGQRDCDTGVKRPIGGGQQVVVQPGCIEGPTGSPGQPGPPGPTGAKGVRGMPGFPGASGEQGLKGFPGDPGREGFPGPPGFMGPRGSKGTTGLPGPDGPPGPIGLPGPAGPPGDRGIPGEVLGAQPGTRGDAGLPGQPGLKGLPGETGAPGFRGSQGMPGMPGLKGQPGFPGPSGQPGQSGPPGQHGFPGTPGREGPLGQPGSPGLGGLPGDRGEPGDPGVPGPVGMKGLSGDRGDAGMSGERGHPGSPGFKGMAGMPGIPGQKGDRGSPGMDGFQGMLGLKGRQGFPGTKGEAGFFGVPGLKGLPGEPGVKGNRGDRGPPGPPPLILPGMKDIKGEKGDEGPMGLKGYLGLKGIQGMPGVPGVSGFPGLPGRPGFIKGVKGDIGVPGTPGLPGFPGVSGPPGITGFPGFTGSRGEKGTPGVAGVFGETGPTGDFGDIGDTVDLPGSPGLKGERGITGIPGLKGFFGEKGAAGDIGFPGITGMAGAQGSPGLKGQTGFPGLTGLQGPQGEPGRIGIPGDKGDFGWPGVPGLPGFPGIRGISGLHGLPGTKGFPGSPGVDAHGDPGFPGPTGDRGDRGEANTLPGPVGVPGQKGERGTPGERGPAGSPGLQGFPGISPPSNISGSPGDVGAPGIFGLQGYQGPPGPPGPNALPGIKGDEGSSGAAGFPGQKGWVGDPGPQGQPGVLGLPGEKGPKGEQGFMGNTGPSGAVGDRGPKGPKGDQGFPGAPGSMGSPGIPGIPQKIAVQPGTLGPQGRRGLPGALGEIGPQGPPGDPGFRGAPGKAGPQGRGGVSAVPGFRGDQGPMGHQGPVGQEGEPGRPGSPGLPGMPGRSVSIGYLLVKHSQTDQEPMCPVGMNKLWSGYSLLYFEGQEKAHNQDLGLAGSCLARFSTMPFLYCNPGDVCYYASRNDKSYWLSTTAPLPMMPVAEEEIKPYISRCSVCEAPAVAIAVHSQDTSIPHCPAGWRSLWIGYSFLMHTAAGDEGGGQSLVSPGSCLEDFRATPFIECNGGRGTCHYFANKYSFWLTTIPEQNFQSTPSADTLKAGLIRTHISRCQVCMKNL
Description: as §1

collagen I = target: T4, collagen I (Rattus norvegicus, UniProt P02454+P02466); assay: as above; conditions: biotinylated peptide
T4 construct: purchased Sigma-Aldrich
T4 sequence (P02454 152-1207 limits assumed): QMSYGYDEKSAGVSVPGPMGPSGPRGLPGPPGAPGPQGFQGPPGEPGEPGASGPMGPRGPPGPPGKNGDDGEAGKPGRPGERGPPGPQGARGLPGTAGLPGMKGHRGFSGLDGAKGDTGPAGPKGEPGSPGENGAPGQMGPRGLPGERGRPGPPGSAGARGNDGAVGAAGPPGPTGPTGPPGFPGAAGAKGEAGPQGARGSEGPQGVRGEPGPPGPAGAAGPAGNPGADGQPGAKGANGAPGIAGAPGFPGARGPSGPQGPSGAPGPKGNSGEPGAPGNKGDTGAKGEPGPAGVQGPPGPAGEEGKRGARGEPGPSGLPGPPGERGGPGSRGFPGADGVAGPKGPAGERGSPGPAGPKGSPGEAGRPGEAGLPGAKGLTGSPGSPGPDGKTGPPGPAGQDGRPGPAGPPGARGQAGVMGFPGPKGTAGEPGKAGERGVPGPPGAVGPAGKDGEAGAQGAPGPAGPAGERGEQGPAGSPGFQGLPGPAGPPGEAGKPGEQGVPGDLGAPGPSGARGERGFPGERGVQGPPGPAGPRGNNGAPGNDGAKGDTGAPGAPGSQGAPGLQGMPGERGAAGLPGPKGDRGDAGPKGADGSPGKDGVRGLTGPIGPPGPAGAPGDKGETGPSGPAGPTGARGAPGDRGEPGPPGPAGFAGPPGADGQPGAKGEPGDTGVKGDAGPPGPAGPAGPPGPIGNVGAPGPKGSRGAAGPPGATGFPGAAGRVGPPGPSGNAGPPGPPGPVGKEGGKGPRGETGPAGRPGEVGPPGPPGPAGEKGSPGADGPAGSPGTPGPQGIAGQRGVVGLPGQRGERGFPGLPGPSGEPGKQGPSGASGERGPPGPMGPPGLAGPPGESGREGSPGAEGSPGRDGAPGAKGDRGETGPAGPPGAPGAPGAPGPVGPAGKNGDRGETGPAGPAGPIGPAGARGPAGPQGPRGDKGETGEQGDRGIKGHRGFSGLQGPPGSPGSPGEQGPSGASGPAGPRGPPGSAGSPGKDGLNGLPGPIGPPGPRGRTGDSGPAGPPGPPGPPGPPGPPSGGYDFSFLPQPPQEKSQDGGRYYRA
T4 sequence (P02466 86-1125 limits assumed): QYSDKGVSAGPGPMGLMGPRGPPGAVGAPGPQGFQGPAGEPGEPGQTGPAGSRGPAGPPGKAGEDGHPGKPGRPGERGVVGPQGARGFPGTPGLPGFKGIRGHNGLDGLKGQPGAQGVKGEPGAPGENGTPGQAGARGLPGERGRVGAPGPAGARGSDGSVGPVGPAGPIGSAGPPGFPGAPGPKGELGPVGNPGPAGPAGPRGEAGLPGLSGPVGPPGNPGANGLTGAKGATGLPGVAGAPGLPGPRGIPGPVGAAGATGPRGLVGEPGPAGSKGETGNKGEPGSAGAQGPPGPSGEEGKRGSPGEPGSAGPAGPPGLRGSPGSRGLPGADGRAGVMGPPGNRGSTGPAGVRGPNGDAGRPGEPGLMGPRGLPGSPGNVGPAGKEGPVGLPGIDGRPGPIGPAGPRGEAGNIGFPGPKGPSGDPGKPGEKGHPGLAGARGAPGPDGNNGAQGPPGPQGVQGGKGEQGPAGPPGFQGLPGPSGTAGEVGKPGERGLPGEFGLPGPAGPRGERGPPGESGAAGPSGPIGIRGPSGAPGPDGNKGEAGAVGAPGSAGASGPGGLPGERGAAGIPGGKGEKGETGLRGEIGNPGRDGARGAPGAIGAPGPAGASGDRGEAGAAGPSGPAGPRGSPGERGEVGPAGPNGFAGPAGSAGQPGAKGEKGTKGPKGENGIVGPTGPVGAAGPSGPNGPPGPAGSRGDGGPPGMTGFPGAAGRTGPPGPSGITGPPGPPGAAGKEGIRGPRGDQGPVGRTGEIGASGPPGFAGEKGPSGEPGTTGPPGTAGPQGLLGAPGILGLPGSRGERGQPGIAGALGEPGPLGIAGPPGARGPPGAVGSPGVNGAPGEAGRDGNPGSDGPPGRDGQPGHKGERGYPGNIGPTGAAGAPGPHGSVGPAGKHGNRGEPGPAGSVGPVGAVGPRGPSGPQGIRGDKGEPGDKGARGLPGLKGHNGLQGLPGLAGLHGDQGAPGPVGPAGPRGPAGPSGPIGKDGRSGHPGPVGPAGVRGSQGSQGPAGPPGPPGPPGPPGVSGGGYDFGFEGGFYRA
Description: as §1

[4] = system: collagen I and collagen IV in decellularized rat aorta ECM and renal ECM; assay: Streptavidin-594 staining of biotinylated CBP on decellularized tissue; assay type: binding; conditions: biotinylated CBP at 100 μM
Text: FIG. 7: Immunofluorescence staining of collagen I and collagen IV in decellularized rat aorta ECM (A) and renal ECM (C). Streptavidin-594 staining of biotinylated CBP on decellularized rat aorta ECM (B) and renal ECM (D). Scale bar=100 μm.
The binding between collagens (types I and IV) and CBP, is predicted to be mediated by intermolecular forces between discrete amino acids within collagen and CBP^17 that contribute to the binding specificity observed above. The molecular composition of ECM is largely heterogeneous, including fibrous proteins such as collagens, soluble proteins such as fibronectin and laminin, and proteoglycans such as heparan sulfate, keratin sulfate, and chondroitin sulfate.^18 The detailed composition of ECM proteins also varies from tissue to tissue, however, ECM from most tissue types contains collagen I (interstitial matrix) and collagen IV (basement membrane).^18 Each collagen subtype is retained in decellularized tissues, specifically vascular (FIG. 7A) and renal tissues (FIG. 7C). […] Taken together, this delivery strategy using CBP as a localizing moiety specifically targets collagens (type IV in particular) and may be used to selectively carry bioactive molecules to the vasculature where collagen IV defines the subendothelial basement membrane that forms the vascular network, including the macro- and micro-vasculatures within all tissues and organs.

**Q.** For Heparin sodium, which “glycosaminoglycan (heparin) content of ECM” value (rat aorta ECM) is on record?
**A.** Its value is 2.81±0.19 μg GAG/mg ECM.

**Q.** What about the “reduction in the number of adherent platelets compared to PBS-treated ECM” value (rat platelet rich plasma) of the same substance?
**A.** Its value is 5.7±6.2%.

**Q.** What about the “blood clots observed on ECM grafts (H&E)” value ([1]; decellularized vascular ECM grafts) of the same substance?
**A.** Its value is “Thick blood clots”.

**Q.** And the “mass of clot/mass of ECM×100%” value ([1]; treated ECM with recalcified blood, 30 min point)?
**A.** Its value is 612.1±126.0%.

**Q.** What about the “VEGF concentration within ECM grafts” value [2] of the same substance?
**A.** The value was 46.5±12.1 pg/mg ECM.

**Q.** And the “adherent endothelial cells on ECM grafts” value [3]?
**A.** The value was “decreased significantly”.

**Q.** What about the “anti-Factor Xa activity of reference standard” value (factor Xa) of the same substance?
**A.** The value was 200 U/mg.

**Q.** What does the source list for CDEFQRSTTY [CBPi]?
**A.** binding to Matrigel (Matrigel): minimal, through significant, levels of binding; binding to collagen III (collagen III): Neither CBP nor CBPi binds; binding to laminin (laminin): minimal, through significant, levels of binding; binding to collagen II (collagen II): Neither CBP nor CBPi binds; binding to fibronectin (fibronectin): Neither CBP nor CBPi binds; adherent endothelial cells on ECM grafts [3]: did not preserve endothelial cell adhesion; adherent endothelial cells on ECM grafts ([3]; listed as BCPi): Minimal to no cells remain; increase in surface fluorescence intensity on collagen IV coated surface (collagen IV): did not result in any increase

**Q.** For “CQDSETRTFY (not fully specified; also: biotin, place not given here; listed as Homo sapiens) [CBP]”, which “binding to Matrigel” value (Matrigel) is on record?
**A.** Its value is “minimal, through significant, levels of binding”.

**Q.** What about the “binding to collagen I coated surfaces” value (collagen I) of the same substance?
**A.** The value was “to a much lesser extent”.

**Q.** And the “binding to collagen III” value (collagen III)?
**A.** The value was “Neither CBP nor CBPi binds”.

**Q.** And the binding to laminin (laminin)?
**A.** Its binding to laminin is “minimal, through significant, levels of binding”.

**Q.** And the “binding to collagen II” value (collagen II)?
**A.** Its value is “Neither CBP nor CBPi binds”.

**Q.** And the binding to fibronectin (fibronectin)?
**A.** Its binding to fibronectin is “Neither CBP nor CBPi binds”.

**Q.** What about the “colocalization with collagens in decellularized vascular and renal tissue” value [4] of the same substance?
**A.** The value was “colocalized with each subtype but was more prominent around collagen IV”.

**Q.** And the “adherent endothelial cells on ECM grafts” value [3]?
**A.** Its value is “did not preserve endothelial cell adhesion; also recorded: Minimal to no cells remain”.
